Common to all, as to format: cell-based
The test system of one assay is C. pylori NCTC11637. In words: MIC by agar dilution method, C. pylori standard strain NCTC11637. The note with it: Helicobacter pylori, 72 h, in vitro, 37° C., pH 7.0, 3 days, microaerophilic, read-out: antibiotic activity (MIC). A general note: In agar dilution the substance is mixed into plates at graded concentrations.
In the next assay the test system is C. pylori NCTC11916. In words: MIC by agar dilution method, C. pylori standard strain NCTC11916. As to conditions: Helicobacter pylori, 72 h, in vitro, 37° C., pH 7.0, 3 days, microaerophilic, read-out: antibiotic activity (MIC).
A further assay has as its system C. pylori EI-2. Nature of the assay: MIC by agar dilution method, C. pylori clinical isolate EI-2. The note with it: Helicobacter pylori, EI2, 72 h; EI-2, clinical isolate; in vitro, 37° C., pH 7.0, 3 days, microaerophilic; read-out: antibiotic activity (MIC).
A further assay has as its system C. pylori EI-5. In words: MIC by agar dilution method, C. pylori clinical isolate EI-5. The note with it: Helicobacter pylori, EI5, 72 h; EI-5, clinical isolate; in vitro, 37° C., pH 7.0, 3 days, microaerophilic; read-out: antibiotic activity (MIC).
For another assay, the system named is C. pylori EI-36. Nature of the assay: MIC by agar dilution method, C. pylori clinical isolate EI-36. The note with it: Helicobacter pylori, EI36, 72 h; EI-36, clinical isolate; in vitro, 37° C., pH 7.0, 3 days, microaerophilic; read-out: antibiotic activity (MIC).
The next assay deals with C. pylori EI-46. Nature of the assay: MIC by agar dilution method, C. pylori clinical isolate EI-46. The note with it: Helicobacter pylori, EI46, 72 h; EI-46, clinical isolate (resistant); in vitro, 37° C., pH 7.0, 3 days, microaerophilic; read-out: antibiotic activity (MIC).
Another assay concerns C. pylori EI-391. Nature of the assay: MIC by agar dilution method, C. pylori clinical isolate EI-391. As to conditions: Helicobacter pylori, EI391, 72 h; EI-391, clinical isolate (resistant); in vitro, 37° C., pH 7.0, 3 days, microaerophilic; read-out: antibiotic activity (MIC).
The subject of a further assay is C. pylori EI-393. Nature of the assay: MIC by agar dilution method, C. pylori clinical isolate EI-393. The note with it: Helicobacter pylori, EI393, 72 h; EI-393, clinical isolate; in vitro, 37° C., pH 7.0, 3 days, microaerophilic; read-out: antibiotic activity (MIC).
Another assay has as its system C. pylori EI-397. In words: MIC by agar dilution method, C. pylori clinical isolate EI-397. As to conditions: Helicobacter pylori, EI397, 72 h; EI-397, clinical isolate; in vitro, 37° C., pH 7.0, 3 days, microaerophilic; read-out: antibiotic activity (MIC).
In the next assay the test system is C. pylori EI-429. In words: MIC by agar dilution method, C. pylori clinical isolate EI-429. As to conditions: Helicobacter pylori, EI429, 72 h; EI-429, clinical isolate; in vitro, 37° C., pH 7.0, 3 days, microaerophilic; read-out: antibiotic activity (MIC).
The next assay relates to C. pylori EI-467. Nature of the assay: MIC by agar dilution method, C. pylori clinical isolate EI-467. The note with it: Helicobacter pylori, EI467, 72 h; EI-467, clinical isolate; in vitro, 37° C., pH 7.0, 3 days, microaerophilic; read-out: antibiotic activity (MIC).
Another assay relates to C. pylori EI-612. In words: MIC by agar dilution method, C. pylori clinical isolate EI-612. As to conditions: Helicobacter pylori, EI612, 72 h; EI-612, clinical isolate; in vitro, 37° C., pH 7.0, 3 days, microaerophilic; read-out: antibiotic activity (MIC).
Another assay relates to C. pylori EI-925. Nature of the assay: MIC by agar dilution method, C. pylori clinical isolate EI-925. The note with it: Helicobacter pylori, EI925, 72 h; EI-925, clinical isolate; in vitro, 37° C., pH 7.0, 3 days, microaerophilic; read-out: antibiotic activity (MIC).
The subject of another assay is C. pylori EI-930. In words: MIC by agar dilution method, C. pylori clinical isolate EI-930. As to conditions: Helicobacter pylori, EI930, 72 h; EI-930, clinical isolate; in vitro, 37° C., pH 7.0, 3 days, microaerophilic; read-out: antibiotic activity (MIC).
A further assay deals with C. pylori EI-933. Nature of the assay: MIC by agar dilution method, C. pylori clinical isolate EI-933. The note with it: Helicobacter pylori, EI933, 72 h; EI-933, clinical isolate; in vitro, 37° C., pH 7.0, 3 days, microaerophilic; read-out: antibiotic activity (MIC).

Values after ≈ are worked out from the molar mass of the structure shown. Where only a bound is given, the exact number is not on record here.

For `CC1(C)S[C@@H]2[C@H](NC(=O)[C@H](N)c3ccccc3)C(=O)N2[C@H]1C(=O)O` [(VII), ampicillin], the minimal inhibitory concentration (MIC) (usually the smallest concentration in the dilution series that meets the test's criterion for growth inhibition) in the assay on C. pylori NCTC11637 was 0.4 µg/mL (≈ 1.14 µM); in the assay with C. pylori NCTC11916 it was 0.05 µg/mL (≈ 0.143 µM); in the assay with C. pylori EI-2, 0.4 µg/mL (≈ 1.14 µM); in the assay on C. pylori EI-5, 0.4 µg/mL (≈ 1.14 µM); with C. pylori EI-36, 0.2 µg/mL (≈ 0.572 µM); in the assay with C. pylori EI-46 it was 0.05 µg/mL (≈ 0.143 µM). For the same molecule, the minimal inhibitory concentration (MIC) in the assay on C. pylori EI-391 amounted to 0.1 µg/mL (≈ 0.286 µM); with C. pylori EI-393, 0.1 µg/mL (≈ 0.286 µM); in the assay on C. pylori EI-397, 0.1 µg/mL (≈ 0.286 µM); in the assay on C. pylori EI-429, 0.2 µg/mL (≈ 0.572 µM); in the assay on C. pylori EI-467, 0.05 µg/mL (≈ 0.143 µM); in the assay on C. pylori EI-612, 0.05 µg/mL (≈ 0.143 µM). Besides, the minimum inhibitory concentration (MIC) came to 0.2 µg/mL (≈ 0.572 µM) with C. pylori EI-925, 0.4 µg/mL (≈ 1.14 µM) in the assay on C. pylori EI-930 and 0.05 µg/mL (≈ 0.143 µM) with C. pylori EI-933.

Take `Cc1c(OCC(F)(F)F)ccnc1CSc1nc2ccccc2[nH]1` [(V), 2-[{3-Methyl-4-(2,2,2-trifluoroethoxy)pyrid-2-yl}methylthio]-1H-benzimidazole]: the minimal inhibitory concentration (MIC) in the assay with C. pylori NCTC11637 came out at 25 µg/mL (≈ 70.7 µM); with C. pylori NCTC11916, 12.5 µg/mL (≈ 35.4 µM); with C. pylori EI-2, 25 µg/mL (≈ 70.7 µM); in the assay with C. pylori EI-5, 12.5 µg/mL (≈ 35.4 µM); in the assay on C. pylori EI-36 it was 12.5 µg/mL (≈ 35.4 µM); in the assay with C. pylori EI-46, 12.5 µg/mL (≈ 35.4 µM). For the same molecule, the minimum inhibitory concentration (MIC) in the assay on C. pylori EI-391 was found to be 12.5 µg/mL (≈ 35.4 µM); with C. pylori EI-393, 25 µg/mL (≈ 70.7 µM); in the assay with C. pylori EI-397, 25 µg/mL (≈ 70.7 µM); in the assay with C. pylori EI-429 it was 25 µg/mL (≈ 70.7 µM); in the assay with C. pylori EI-467, 12.5 µg/mL (≈ 35.4 µM); in the assay on C. pylori EI-612 it was 6.25 µg/mL (≈ 17.7 µM). For the same molecule, the MIC in the assay with C. pylori EI-925, in the assay with C. pylori EI-930 and with C. pylori EI-933 was 12.5 µg/mL (≈ 35.4 µM) throughout.

In the case of `CC[C@H]1OC(=O)[C@H](C)[C@@H](O[C@H]2C[C@@](C)(OC)[C@@H](O)[C@H](C)O2)[C@H](C)[C@@H](O[C@@H]2O[C@H](C)C[C@H](N(C)C)[C@H]2O)[C@](C)(O)C[C@@H](C)/C(=N\OCOCCOC)[C@H](C)[C@@H](O)[C@]1(C)O` [(VI), roxithromycin], the minimum inhibitory concentration (MIC) in the assay on C. pylori NCTC11637 is 0.4 µg/mL (≈ 0.478 µM); with C. pylori NCTC11916, 0.1 µg/mL (≈ 0.119 µM); in the assay with C. pylori EI-2, 0.2 µg/mL (≈ 0.239 µM); with C. pylori EI-5 it was 0.2 µg/mL (≈ 0.239 µM); in the assay on C. pylori EI-36 it was 0.2 µg/mL (≈ 0.239 µM); with C. pylori EI-46 it was greater than 100 µg/mL. In addition, the minimum inhibitory concentration (MIC) in the assay with C. pylori EI-391 was found to be 50 µg/mL (≈ 59.7 µM); in the assay on C. pylori EI-393 it was 0.2 µg/mL (≈ 0.239 µM); in the assay on C. pylori EI-397 it was 0.2 µg/mL (≈ 0.239 µM); in the assay with C. pylori EI-429, 0.2 µg/mL (≈ 0.239 µM); in the assay on C. pylori EI-467, 0.2 µg/mL (≈ 0.239 µM); in the assay on C. pylori EI-612, 0.2 µg/mL (≈ 0.239 µM). In addition, the values for the MIC in the assay with C. pylori EI-925, with C. pylori EI-930 and in the assay with C. pylori EI-933 were 0.2 µg/mL (≈ 0.239 µM), 0.4 µg/mL (≈ 0.478 µM) and 0.1 µg/mL (≈ 0.119 µM), respectively.

As to `COc1ccc2[nH]c(SCc3ncc(C)c(OC)c3C)nc2c1` [(IV), 5-Methoxy-2-{(4-methoxy-3,5-dimethyl-2-pyridinyl)methylthio}-1H-benzimidazole], the MIC stood at 25 µg/mL (≈ 75.9 µM) with C. pylori NCTC11637; 12.5 µg/mL (≈ 37.9 µM) in the assay on C. pylori NCTC11916; 25 µg/mL (≈ 75.9 µM) in the assay on C. pylori EI-2; 25 µg/mL (≈ 75.9 µM) with C. pylori EI-5; 12.5 µg/mL (≈ 37.9 µM) in the assay with C. pylori EI-36; 12.5 µg/mL (≈ 37.9 µM) in the assay on C. pylori EI-46. Besides, the MIC in the assay with C. pylori EI-391 was determined as 25 µg/mL (≈ 75.9 µM); with C. pylori EI-393, 25 µg/mL (≈ 75.9 µM); in the assay with C. pylori EI-397, 25 µg/mL (≈ 75.9 µM); in the assay with C. pylori EI-429, 25 µg/mL (≈ 75.9 µM); in the assay with C. pylori EI-467 it was 12.5 µg/mL (≈ 37.9 µM); in the assay on C. pylori EI-612, 12.5 µg/mL (≈ 37.9 µM). The minimum inhibitory concentration (MIC) with C. pylori EI-925, with C. pylori EI-930 and in the assay with C. pylori EI-933 was 12.5 µg/mL (≈ 37.9 µM) each time.

As for `CC1COc2c(N3CCN(C)CC3)c(F)cc3c(=O)c(C(=O)O)cn1c23` (stereo not drawn) [(VIII), ofloxacin], the MIC with C. pylori NCTC11637 was 0.8 µg/mL (≈ 2.21 µM); in the assay with C. pylori NCTC11916 it was 0.8 µg/mL (≈ 2.21 µM); in the assay with C. pylori EI-2, 0.8 µg/mL (≈ 2.21 µM); in the assay on C. pylori EI-5, 0.8 µg/mL (≈ 2.21 µM); in the assay on C. pylori EI-36, 0.8 µg/mL (≈ 2.21 µM); with C. pylori EI-46, 3.13 µg/mL (≈ 8.66 µM). Besides, the minimal inhibitory concentration (MIC) was found to be 25 µg/mL (≈ 69.2 µM) in the assay on C. pylori EI-391; 0.8 µg/mL (≈ 2.21 µM) in the assay with C. pylori EI-393; 0.8 µg/mL (≈ 2.21 µM) with C. pylori EI-397; 0.8 µg/mL (≈ 2.21 µM) in the assay with C. pylori EI-429; 0.4 µg/mL (≈ 1.11 µM) in the assay on C. pylori EI-467; 0.8 µg/mL (≈ 2.21 µM) in the assay on C. pylori EI-612. Further, the values for the minimum inhibitory concentration (MIC) in the assay on C. pylori EI-925, in the assay with C. pylori EI-930 and in the assay with C. pylori EI-933 were 0.4 µg/mL (≈ 1.11 µM), 0.8 µg/mL (≈ 2.21 µM) and 0.4 µg/mL (≈ 1.11 µM), respectively.
